Results: publication PMC11137008, “Cryo-EM analysis reveals human SID-1 transmembrane family member 1 dynamics underlying lipid hydrolytic activity” (Communications Biology, 2024)

T1: human SIDT1 (hSIDT1) (Homo sapiens, UniProt Q9NXL6)
T1 construct: full length; expressed in Expi293F cells by baculovirus; digitonin extraction, GDN micelle; N-glycosylated homodimer
T1 sequence (Q9NXL6 20-827): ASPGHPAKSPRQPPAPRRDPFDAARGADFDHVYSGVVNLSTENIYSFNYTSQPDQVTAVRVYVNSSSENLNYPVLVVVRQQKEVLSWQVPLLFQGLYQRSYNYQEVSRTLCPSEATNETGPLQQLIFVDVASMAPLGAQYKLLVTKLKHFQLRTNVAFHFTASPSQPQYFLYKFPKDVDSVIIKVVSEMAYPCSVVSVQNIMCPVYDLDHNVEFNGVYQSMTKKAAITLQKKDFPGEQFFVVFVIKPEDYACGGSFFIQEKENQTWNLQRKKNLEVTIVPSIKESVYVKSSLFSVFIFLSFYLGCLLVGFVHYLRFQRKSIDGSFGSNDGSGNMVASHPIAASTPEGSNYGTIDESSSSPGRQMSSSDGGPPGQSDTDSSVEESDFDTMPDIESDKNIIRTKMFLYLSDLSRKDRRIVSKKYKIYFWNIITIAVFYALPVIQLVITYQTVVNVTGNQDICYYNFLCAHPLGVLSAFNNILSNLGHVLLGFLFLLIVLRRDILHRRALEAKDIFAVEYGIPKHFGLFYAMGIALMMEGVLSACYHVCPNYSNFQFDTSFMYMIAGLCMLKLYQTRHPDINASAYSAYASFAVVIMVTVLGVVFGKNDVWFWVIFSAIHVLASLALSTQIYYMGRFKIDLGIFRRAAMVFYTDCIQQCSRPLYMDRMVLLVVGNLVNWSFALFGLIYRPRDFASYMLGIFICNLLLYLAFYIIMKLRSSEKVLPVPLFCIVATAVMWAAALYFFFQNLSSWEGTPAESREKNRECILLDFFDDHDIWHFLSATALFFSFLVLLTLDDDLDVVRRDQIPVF

T2: human SIDT1 full length WT (Homo sapiens, UniProt Q9NXL6 1-827)
T2 sequence: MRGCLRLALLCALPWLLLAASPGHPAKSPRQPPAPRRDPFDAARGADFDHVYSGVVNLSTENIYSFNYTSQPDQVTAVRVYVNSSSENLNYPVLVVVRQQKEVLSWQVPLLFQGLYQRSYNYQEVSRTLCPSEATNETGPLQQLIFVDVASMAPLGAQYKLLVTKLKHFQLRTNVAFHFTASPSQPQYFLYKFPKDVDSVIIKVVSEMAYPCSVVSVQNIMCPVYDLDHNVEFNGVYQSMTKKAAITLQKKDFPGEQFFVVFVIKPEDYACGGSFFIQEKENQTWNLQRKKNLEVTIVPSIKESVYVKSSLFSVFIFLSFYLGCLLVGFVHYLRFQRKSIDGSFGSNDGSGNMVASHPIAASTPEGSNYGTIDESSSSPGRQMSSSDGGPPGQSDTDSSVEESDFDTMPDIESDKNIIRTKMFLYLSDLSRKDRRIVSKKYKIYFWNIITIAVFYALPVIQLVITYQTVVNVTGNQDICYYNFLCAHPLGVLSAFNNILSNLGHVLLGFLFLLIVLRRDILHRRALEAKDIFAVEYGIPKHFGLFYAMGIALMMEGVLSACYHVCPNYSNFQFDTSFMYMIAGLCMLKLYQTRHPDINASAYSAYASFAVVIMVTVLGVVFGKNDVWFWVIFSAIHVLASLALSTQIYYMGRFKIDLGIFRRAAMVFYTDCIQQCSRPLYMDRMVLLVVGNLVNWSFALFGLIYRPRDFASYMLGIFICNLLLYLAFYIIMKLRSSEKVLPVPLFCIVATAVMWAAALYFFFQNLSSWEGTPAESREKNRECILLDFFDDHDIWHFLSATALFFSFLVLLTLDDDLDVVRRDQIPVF

B1: 46 bp dsRNA (dsRNA)
RNA 1: AUUCUGCGGAUUAUUUGGCAAAGGAAGCAUUGACACAUGCGCCAAU
RNA 2: AUUGGCGCAUGUGUCAAUGCUUCCUUUGCCAAAUAAUCCGCAGAAU

Tests used:
human SIDT1 (hSIDT1) [1] = molecular target: T1, human SIDT1 (hSIDT1); experiment: TLC fluorescence ceramidase assay; format: biochemical; conditions: labelled compound; 10 mM methyl beta-cyclodextrin required (cholesterol depletion); pH 8.0, 0.01% GDN, 37 °C, 3 h
human SIDT1 (hSIDT1) [2] = molecular target: T1, human SIDT1 (hSIDT1); experiment: cryo-EM structure, […] A; GC/MS of purified protein; format: binding; conditions: endogenous, co-purified; allosteric; TM5/TM6/TM7 pocket at intracellular side; two molecules per protomer described (CLR1, CLR2); GDN, pH 6.0
[3] = molecular target: T2, human SIDT1 full length WT; experiment: EMSA; pH 7.0; EMSA: 1 or 2 uM 46 bp dsRNA with 0-8 uM hSIDT1 (mutants 1-5 uM, 1 uM dsRNA, pH 5.0), 4 C, 2 h; electrophoresis in Tris-acetate buffer at pH 4.0-7.0; protein stock in 20 mM MES pH 6.0, 150 mM NaCl, 0.01% GDN; conditions: protein: recombinant; tags: C-terminal TEV site, FLAG, His10; chain copies: 2; blunt (implied by 46 bp)

Row | Molecule | TLC fluorescence ceramidase assay (human SIDT1 (hSIDT1) [1]) | further results
1 | CCCCCCCCCCCCC/C=C/[C@@H](O)[C@H](CO)NC(=O)CCCCCCCCCCCNc1ccc([N+](=O)[O-])c2nonc12 [C12 NBD ceramide] | SIDT1 exhibited a ceramidase activity only in the presence of methyl β-cyclodextrin | –
2 | CCCCCCCCCCCCCCC[C@@H](O)[C@H](CO)NC(=O)CCCCCCCCCCCNc1ccc([N+](=O)[O-])c2nonc12 [C12 NBD dihydroceramide] | SIDT1 also harbors a ceramidase activity to ceramide and dihydroceramide | –
3 | CC(C)CCC[C@@H](C)[C@H]1CC[C@H]2[C@@H]3CC=C4C[C@@H](O)CC[C@]4(C)[C@H]3CC[C@]12C [cholesterol] | – | cryo-EM structure, 2.77 A; GC/MS of purified protein (human SIDT1 (hSIDT1) [2]): endogenous cholesterol is assumed to be co-purified with SIDT1
4 | B1 | – | binding result [3]: binds
